Test results published in US8895549B2, “Aminoalcohol substituted 2,3-dihydroimidazo[1,2-c]quinazoline derivatives useful for treating hyper-proliferative disorders and diseases associated with angiogenesis” (Bayer Intellectual Property GmbH, priority 2010, dated 2014).

Tests used:
[1] = biological target: PI3Kα (complex of human p110α and human p85α) (Homo sapiens (Human), UniProt P42336); test: PI3Kα kinase assay (HTRF-based PI3K inhibition assay); format: biochemical; details: for inhibition at 0.93 µM: 0.93 μM compound, read-out: PI3K alpha average % Inhibition at 0.93 μM; for IC50: 10 μM ATP, 10 μM PIP2, 20 min at 22° C., read-out: average IC50 in the PI3K alpha biochemical assay;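 as to all read-outs here: PIP3 product detected by HTRF, reading resonance energy transfer from Europium-labeled anti-GST antibody to Streptavidin-APC, as displacement of biotinylated PIP3 tracer from the GST-PH domain complex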
Sequence of PI3Kα (complex of human p110α and human p85α) (P42336 whole entry, the tested form may be a part): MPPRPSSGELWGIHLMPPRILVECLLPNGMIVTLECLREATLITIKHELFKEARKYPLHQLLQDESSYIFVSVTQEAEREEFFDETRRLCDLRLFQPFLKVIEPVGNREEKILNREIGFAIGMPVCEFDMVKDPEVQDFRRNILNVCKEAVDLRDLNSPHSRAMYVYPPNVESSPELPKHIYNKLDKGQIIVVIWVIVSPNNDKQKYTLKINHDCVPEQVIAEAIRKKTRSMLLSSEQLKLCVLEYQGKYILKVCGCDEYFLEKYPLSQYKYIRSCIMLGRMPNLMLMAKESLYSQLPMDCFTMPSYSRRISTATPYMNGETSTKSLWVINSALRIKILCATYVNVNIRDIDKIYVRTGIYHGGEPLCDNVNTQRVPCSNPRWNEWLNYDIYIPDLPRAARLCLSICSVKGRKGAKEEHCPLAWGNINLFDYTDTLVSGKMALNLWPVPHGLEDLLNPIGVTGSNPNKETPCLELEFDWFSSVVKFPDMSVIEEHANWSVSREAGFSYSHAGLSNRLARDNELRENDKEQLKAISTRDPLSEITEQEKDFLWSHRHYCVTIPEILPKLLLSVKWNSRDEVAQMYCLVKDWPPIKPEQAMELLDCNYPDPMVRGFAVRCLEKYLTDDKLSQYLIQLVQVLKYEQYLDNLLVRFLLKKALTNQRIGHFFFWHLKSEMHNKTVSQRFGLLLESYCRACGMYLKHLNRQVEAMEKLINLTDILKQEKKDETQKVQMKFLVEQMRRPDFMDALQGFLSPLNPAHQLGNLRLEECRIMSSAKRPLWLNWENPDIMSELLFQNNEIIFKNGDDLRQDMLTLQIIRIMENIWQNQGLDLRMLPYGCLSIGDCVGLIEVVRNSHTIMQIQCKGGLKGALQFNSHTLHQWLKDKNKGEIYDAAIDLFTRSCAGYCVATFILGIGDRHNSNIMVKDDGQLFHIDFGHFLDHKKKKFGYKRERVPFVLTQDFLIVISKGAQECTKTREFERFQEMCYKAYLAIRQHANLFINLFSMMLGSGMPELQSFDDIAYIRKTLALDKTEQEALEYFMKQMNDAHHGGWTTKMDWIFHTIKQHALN
Sequence of PI3Kα (complex of human p110α and human p85α) (P27986 whole entry partner, the tested form may be a part): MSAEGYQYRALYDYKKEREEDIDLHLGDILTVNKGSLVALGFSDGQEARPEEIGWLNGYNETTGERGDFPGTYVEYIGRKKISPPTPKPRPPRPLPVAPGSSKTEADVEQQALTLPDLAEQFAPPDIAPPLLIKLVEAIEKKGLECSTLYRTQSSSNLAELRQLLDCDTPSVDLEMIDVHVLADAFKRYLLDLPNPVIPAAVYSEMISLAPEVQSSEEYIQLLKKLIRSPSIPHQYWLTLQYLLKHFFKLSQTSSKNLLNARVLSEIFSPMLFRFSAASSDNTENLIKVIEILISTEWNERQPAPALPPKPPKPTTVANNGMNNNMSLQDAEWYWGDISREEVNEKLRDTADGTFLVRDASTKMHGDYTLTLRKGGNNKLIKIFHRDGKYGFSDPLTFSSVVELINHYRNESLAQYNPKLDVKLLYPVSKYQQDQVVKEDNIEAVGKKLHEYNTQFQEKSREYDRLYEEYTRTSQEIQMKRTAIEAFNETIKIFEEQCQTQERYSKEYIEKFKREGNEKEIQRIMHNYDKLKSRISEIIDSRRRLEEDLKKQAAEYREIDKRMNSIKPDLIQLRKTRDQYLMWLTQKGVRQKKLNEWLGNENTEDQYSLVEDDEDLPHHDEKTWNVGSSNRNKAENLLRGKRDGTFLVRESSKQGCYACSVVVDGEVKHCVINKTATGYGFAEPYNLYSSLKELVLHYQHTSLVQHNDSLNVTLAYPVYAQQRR
Description: (§1) Determination of % Inhibition and IC50 Values of Compounds in PI3Kα Kinase Assay
PI3Kα inhibitory activity of compounds of the present invention was quantified employing the HTRF-based PI3K inhibition assay as described below.
(§2) As reagents for the kinase reaction itself and the quantification of the reaction product, the PI3-Kinase HTRF Assay kit from Millipore (#33-017) was used. With this kit the phosphatidylinositol 3,4,5-trisphosphate (PIP3) generated in the kinase reaction is detected by displacement of a biotinylated ligand from an energy transfer complex consisting of a Europium-labeled anti-GST monoclonal antibody, a GST-tagged PH domain, biotinylated PIP3 and Streptavidin-Allophycocyanin (APC).
For the assay 50 nL of a 80-fold concentrated solution of the test compound in DMSO was pipetted into a black low volume 384-well microtiter plate (Greiner Bio-One, Frickenhausen, Germany), 3 μL of a solution of PI3Kα and phosphatidylinositol-4,5-bisphosphate (PIP2, 13.8 μM=> final conc. in 4 μl reaction volume=10 μM) in 1× reaction buffer (exact composition not disclosed by the vendor) were added and the mixture was incubated for 15 min at 22° C. to allow pre-binding of the test compounds to the enzyme before the start of the kinase reaction. The amount of PI3Kα was chosen to have the enzyme reaction in the linear range and depended on the activity of the individual lot, typical concentrations in assay were in the range of 90 ng/mL. Then the kinase reaction was started by the addition of 1 μL of a solution of adenosine triphosphate (ATP, 40 μM=> final conc. in the 4 μL assay volume is 10 μM) in reaction buffer and the resulting mixture was incubated for a reaction time of 20 min at 22° C.
The reaction was stopped by the addition of 1 μL of an stop solution (containing the biotinylated PIP3 used as a tracer), then 1 μL detection mix (containing a Europium-labeled anti-GST monoclonal antibody, a GST-tagged PH domain, and Streptavidin-Allophycocyanin) was added and resulting mixture was incubated 3 h at 22° C. to allow the formation of complexes between the detection reagents and either the PIP3 generated in the kinase reaction, or the biotinylated PIP3 added with the stop solution. Subsequently, the amount of energy transfer complex consisting of a Europium-labeled anti-GST monoclonal antibody, a GST-tagged PH domain, biotinylated PIP3 and Streptavidin-Allophycocyanin (APC) was evaluated by measurement of the resonance energy transfer from the Europium-labeled anti-GST monoclonal antibody to the Streptavidin-Allophycocyanin. Therefore, the fluorescence emissions at 620 nm and 665 nm after excitation at 350 nm were measured using a TR-FRET reader, e.g., a Pherastar (BMG Labtechnologies, Offenburg, Germany) or a Viewlux (Perkin-Elmer). The ratio of the emissions at 665 nm and at 622 nm was taken as the measure for the amount of biotinylated PIP3 bound to the GST-tagged PH domain, which is negatively correlated with the amount of PIP3 generated.

[2] = biological target: PI3Kβ (complex of human p110β and human p85α) (Homo sapiens (Human), UniProt P42338); test: PI3Kβ kinase assay (HTRF-based PI3K inhibition assay); format: biochemical; details: for inhibition at 0.93 µM: 0.93 μM compound, read-out: PI3K beta average % Inhibition at 0.93 μM; for IC50: 10 μM ATP, 10 μM PIP2, 20 min at 22° C., read-out: average IC50 in the PI3K beta biochemical assay; for PI3K beta average IC50/PI3K alpha average IC50: ratio of beta IC50 to alpha IC50;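 as to all read-outs here: Kinase-made PIP3 detected by HTRF, displacing biotinylated PIP3 tracer from a complex of Europium anti-GST antibody, GST-fused PH domain and Streptavidin-APC, read as Europium-to-APC energy transfer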
Sequence of PI3Kβ (complex of human p110β and human p85α) (P42338 whole entry, the tested form may be a part): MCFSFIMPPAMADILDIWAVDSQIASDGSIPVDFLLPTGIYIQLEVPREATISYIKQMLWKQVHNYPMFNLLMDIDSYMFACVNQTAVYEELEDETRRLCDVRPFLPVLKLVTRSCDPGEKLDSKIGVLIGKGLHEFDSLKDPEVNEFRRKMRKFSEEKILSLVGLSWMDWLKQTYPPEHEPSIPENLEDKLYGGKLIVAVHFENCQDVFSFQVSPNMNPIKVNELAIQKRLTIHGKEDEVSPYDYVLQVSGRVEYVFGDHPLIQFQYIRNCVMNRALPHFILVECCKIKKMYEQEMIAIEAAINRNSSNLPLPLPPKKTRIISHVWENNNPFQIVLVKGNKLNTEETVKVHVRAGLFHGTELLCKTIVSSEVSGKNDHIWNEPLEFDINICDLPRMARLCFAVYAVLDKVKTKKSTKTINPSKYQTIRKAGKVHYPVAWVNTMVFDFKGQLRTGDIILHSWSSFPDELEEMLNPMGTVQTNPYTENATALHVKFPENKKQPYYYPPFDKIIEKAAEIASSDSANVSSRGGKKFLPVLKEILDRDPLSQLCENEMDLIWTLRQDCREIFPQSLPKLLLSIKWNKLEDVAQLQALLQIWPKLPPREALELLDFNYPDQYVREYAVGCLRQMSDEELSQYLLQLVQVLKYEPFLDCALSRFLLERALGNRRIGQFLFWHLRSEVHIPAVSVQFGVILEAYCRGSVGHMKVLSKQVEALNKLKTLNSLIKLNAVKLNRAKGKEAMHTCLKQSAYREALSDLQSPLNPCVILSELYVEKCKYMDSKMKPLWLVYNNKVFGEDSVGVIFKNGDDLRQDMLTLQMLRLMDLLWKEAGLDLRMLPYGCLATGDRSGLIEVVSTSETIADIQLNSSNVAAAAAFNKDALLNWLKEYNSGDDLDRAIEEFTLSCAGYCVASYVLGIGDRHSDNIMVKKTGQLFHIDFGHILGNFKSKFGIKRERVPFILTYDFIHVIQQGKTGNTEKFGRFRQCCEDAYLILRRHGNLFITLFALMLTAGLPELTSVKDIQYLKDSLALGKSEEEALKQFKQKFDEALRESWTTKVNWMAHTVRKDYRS
Sequence of PI3Kβ (complex of human p110β and human p85α) (P27986 whole entry partner, the tested form may be a part): as the sequence (P27986 whole entry partner, the tested form may be a part) above
Description: as §1
PI3Kα inhibitory activity of compounds of the present invention was quantified employing the HTRF based PI3K inhibition assay as described below.
as §2
For the assay 50 nL of a 80-fold concentrated solution of the test compound in DMSO was pipetted into a black low volume 384-well microtiter plate (Greiner Bio-One, Frickenhausen, Germany), 3 μl of a solution of PI3Kβ and phosphatidylinositol-4,5-bisphosphate (PIP2, 13.8 μM=> final conc. in 4 μl reaction volume=10 μM) in 1× reaction buffer (exact composition not disclosed by the vendor) were added and the mixture was incubated for 15 min at 22° C. to allow pre-binding of the test compounds to the enzyme before the start of the kinase reaction. The amount of PI3Kβ was chosen to have the enzyme reaction in the linear range and depended on the activity of the individual lot, typical concentrations in assay were in the range of 120 ng/mL. Then the kinase reaction was started by the addition of 1 μL of a solution of adenosine triphosphate (ATP, 40 μM=> final conc. in the 4 μl assay volume is 10 μM) in reaction buffer and the resulting mixture was incubated for a reaction time of 20 min at 22° C.
The reaction was stopped by the addition of 1 μL of an stop solution (containing the biotinylated PIP3 used as a tracer). Then 1 μL detection mix (containing a Europium-labeled anti-GST monoclonal antibody, a GST-tagged PH domain, and Streptavidin-Allophycocyanin) was added and resulting mixture was incubated for 3 h at 22° C. to allow the formation of complexes between the detection reagents and either the PIP3 generated in the kinase reaction, or the biotinylated PIP3 added with the stop solution. Subsequently the amount of energy transfer complex consisting of a Europium-labeled anti-GST monoclonal antibody, a GST-tagged PH domain, biotinylated PIP3 and Streptavidin-Allophycocyanin (APC) was evaluated by measurement of the resonance energy transfer from the Europium-labeled anti-GST monoclonal antibody to the Streptavidin-Allophycocyanin. Therefore, the fluorescence emissions at 620 nm and 665 nm after excitation at 350 nm were measured using a TR-FRET reader, e.g., a Pherastar (BMG Labtechnologies, Offenburg, Germany) or a Viewlux (Perkin-Elmer). The ratio of the emissions at 665 nm and at 622 nm were taken as the measure for the amount of biotinylated PIP3 bound to the GST-tagged PH domain, which is negatively correlated with the amount of PIP3 generated.

inhibition at 0.93 µM [1]	inhibition at 0.93 µM [2]	IC50 [1]	IC50 [2]	PI3K beta average IC50/PI3K alpha average IC50 [2]	Compound
97.4%	92.1%				COc1c(OCC(O)CN2CCOCC2)ccc2c1N=C(NC(=O)c1cccnc1)N1CCN=C21 (stereo not shown) [Comparative Example 1, N-{8-[2-hydroxy-3-(morpholin-4-yl)propoxy]-7-methoxy-2,3-dihydroimidazo[1,2-c]quinazolin-5-yl}pyridine-3-carboxamide, reference compound]
103%	92.9%				COc1c(OC[C@@H](O)CN2CCOCC2)ccc2c1N=C(NC(=O)c1cccnc1)N1CCN=C21 [Example 3, N-(8-{[(2S)-2-hydroxy-3-(morpholin-4-yl)propyl]oxy}-7-methoxy-2,3-dihydroimidazo[1,2-c]quinazolin-5-yl)pyridine-3-carboxamide]
99.8%	96.4%	10 to 50 nM	> 50 nM	4.85	COc1c(OC[C@H](O)CN2C[C@@H](C)O[C@@H](C)C2)ccc2c1N=C(NC(=O)c1cccnc1)N1CCN=C21 [Example 4, N-[8-({(2R)-3-[(2R,6S)-2,6-dimethylmorpholin-4-yl]-2-hydroxypropyl}oxy)-7-methoxy-2,3-dihydroimidazo[1,2-c]quinazolin-5-yl]pyridine-3-carboxamide]
101%	104%	< 10 nM	10 to 50 nM	3.68	COc1c(OC[C@H](O)CN2CC3CCC(C2)O3)ccc2c1N=C(NC(=O)c1cccnc1)N1CCN=C21 [Example 5, N-(8-{[(2R)-2-hydroxy-3-(8-oxa-3-azabicyclo[3.2.1]oct-3-yl)propyl]oxy}-7-methoxy-2,3-dihydroimidazo[1,2-c]quinazolin-5-yl)pyridine-3-carboxamide]
99.5%	97.3%	10 to 50 nM	> 50 nM	2.22	COc1c(OC[C@H](O)CN2CCC2)ccc2c1N=C(NC(=O)c1cccnc1)N1CCN=C21 [Example 7, N-(8-{[(2R)-3-(azetidin-1-yl)-2-hydroxypropyl]oxy}-7-methoxy-2,3-dihydroimidazo[1,2-c]quinazolin-5-yl)pyridine-3-carboxamide]
102%	101%	< 10 nM	10 to 50 nM	2.62	COc1c(OC[C@H](O)CN2CCCC2)ccc2c1N=C(NC(=O)c1cccnc1)N1CCN=C21 [Example 8, N-(8-{[(2R)-2-hydroxy-3-(pyrrolidin-1-yl)propyl]oxy}-7-methoxy-2,3-dihydroimidazo[1,2-c]quinazolin-5-yl)pyridine-3-carboxamide]
104%	115%	< 10 nM	10 to 50 nM	4.74	COc1c(OC[C@H](O)CN(C(C)C)C(C)C)ccc2c1N=C(NC(=O)c1cccnc1)N1CCN=C21 [Example 12, N-(8-{[(2R)-3-(dipropan-2-ylamino)-2-hydroxypropyl]oxy}-7-methoxy-2,3-dihydroimidazo[1,2-c]quinazolin-5-yl)pyridine-3-carboxamide]
109%	87.7%	10 to 50 nM	10 to 50 nM	3.94	COc1c(OC[C@H](O)CN2CCC2)ccc2c1N=C(NC(=O)c1cccnc1C)N1CCN=C21 [Example 16, N-(8-{[(2R)-3-(Azetidin-1-yl)-2-hydroxypropyl]oxy}-7-methoxy-2,3-dihydroimidazo[1,2-c]quinazolin-5-yl)-2-methylpyridine-3-carboxamide]
109%	87.2%	< 10 nM	10 to 50 nM	5.36	COc1c(OC[C@H](O)CN2C[C@@H](C)O[C@@H](C)C2)ccc2c1N=C(NC(=O)c1cccnc1C)N1CCN=C21 [Example 17, N-[8-({(2R)-3-[(2R,6S)-2,6-dimethylmorpholin-4-yl]-2-hydroxypropyl}oxy)-7-methoxy-2,3-dihydroimidazo[1,2-c]quinazolin-5-yl]-2-methylpyridine-3-carboxamide]
96.9%	103%	< 10 nM	10 to 50 nM	3.90	COc1c(OC[C@H](O)CN2CCCC2)ccc2c1N=C(NC(=O)c1cccnc1C)N1CCN=C21 [Example 18, N-(8-{[(2R)-2-hydroxy-3-(pyrrolidin-1-yl)propyl]oxy}-7-methoxy-2,3-dihydroimidazo[1,2-c]quinazolin-5-yl)-2-methylpyridine-3-carboxamide]

Compound	inhibition at 0.93 µM [1]	inhibition at 0.93 µM [2]	IC50 [1]	IC50 [2]	PI3K beta average IC50/PI3K alpha average IC50 [2]
COc1c(OC[C@H](O)CN2CCOCC2)ccc2c1N=C(NC(=O)c1cccnc1)N1CCN=C21 [Example 2, N-(8-{[(2R)-2-hydroxy-3-(morpholin-4-yl)propyl]oxy}-7-methoxy-2,3-dihydroimidazo[1,2-c]quinazolin-5-yl)pyridine-3-carboxamide]	97.6%	94.4%			
COc1c(OCC(O)CN2CCSCC2)ccc2c1N=C(NC(=O)c1cccnc1)N1CCN=C21 (stereo not shown) [Example 6, N-{8-[2-hydroxy-3-(thiomorpholin-4-yl)propoxy]-7-methoxy-2,3-dihydroimidazo[1,2-c]quinazolin-5-yl}pyridine-3-carboxamide]	91.2%	84.1%	< 10 nM	> 50 nM	
COc1c(OC[C@H](O)CN2CCCCC2)ccc2c1N=C(NC(=O)c1cccnc1)N1CCN=C21 [Example 9, N-(8-{[(2R)-2-Hydroxy-3-(piperidin-1-yl)propyl]oxy}-7-methoxy-2,3-dihydroimidazo[1,2-c]quinazolin-5-yl)pyridine-3-carboxamide]	104%	97.2%	< 10 nM	10 to 50 nM	2.02
COc1c(OCC(O)CN(C)C)ccc2c1N=C(NC(=O)c1cccnc1)N1CCN=C21 (stereo not shown) [Example 10, N-{8-[3-(dimethylamino)-2-hydroxypropoxy]-7-methoxy-2,3-dihydroimidazo[1,2-c]quinazolin-5-yl}pyridine-3-carboxamide]	96.3%	98.1%	< 10 nM	10 to 50 nM	5.47
COc1c(OC[C@H](O)CN(C)C)ccc2c1N=C(NC(=O)c1cccnc1)N1CCN=C21 [Example 11, N-(8-{[(2R)-3-(dimethylamino)-2-hydroxypropyl]oxy}-7-methoxy-2,3-dihydroimidazo[1,2-c]quinazolin-5-yl)pyridine-3-carboxamide]	82%	95.5%	10 to 50 nM	10 to 50 nM	1.60
COc1c(OC[C@H](O)CN2CCOCC2)ccc2c1N=C(NC(=O)c1cccnc1C)N1CCN=C21 [Example 14, N-(8-{[(2R)-2-Hydroxy-3-(morpholin-4-yl)propyl]oxy}-7-methoxy-2,3-dihydroimidazo[1,2-c]quinazolin-5-yl)-2-methylpyridine-3-carboxamide]	104%	102%	< 10 nM	10 to 50 nM	3.09
